From patent US3966734A, “Method for the purification of 6-methoxy-1-phenazinol 5,10-dioxide” (Hoffmann-La Roche Inc., priority 1975, dated 1976) come the findings set out here.

Some results are limits rather than exact numbers.

One data set has as its system M. canis. The data set is described as follows: In vitro anti-microbial activity (minimum inhibitory concentration) against M. canis. The class given is cell-based. As for the experimental part:
(§1) For example, the anti-microbial activity of calcium myxin dihydrate, prepared by the method of this invention, is evaluated and compared to that of myxin itself both in vivo against 4 strains of bacteria and in vitro against yeast and fungus infections.

The subject of another data set is S. aureus. Briefly: In vivo anti-microbial activity against S. aureus. As for the experimental part: as §1
In a further data set the test system is E. coli. The data set is described as follows: In vivo anti-microbial activity against E. coli. As for the experimental part: as §1
In the next data set the test system is C. albicans. Briefly: In vitro anti-microbial activity (minimum inhibitory concentration) against C. albicans. It is filed as cell-based. As for the experimental part: as §1
A further data set has as its system S. agalactiae. Briefly: In vivo anti-microbial activity against S. agalactiae. The method, then:
as §1

Another data set deals with P. aeruginosa. The data set is described as follows: In vivo anti-microbial activity against P. aeruginosa. The method, then: as §1
Data set [1] deals with gram positive and gram negative bacteria, fungi, protozoa and helminths. The data set is described as follows: Anti-microbial activity in in vitro tests and in vivo topical infections (general statement).
Another data set is described as follows: Solubility in water. It is filed as physicochemical.

Consider “6-methoxy-1-phenazinol 5,10-dioxide, calcium dihydrate complex [Calcium Myxin Dihydrate]”, for which the “Minimum Inhibitory Concentration, cidal” value with M. canis (cidal) and with C. albicans (cidal) was below 0.8 µg/mL each time. Besides, the “Minimum Inhibitory Concentration, static” value with M. canis (static) and in the data set on C. albicans (static) was below 0.8 µg/mL in each case. In addition, the “ED50' (in vivo)” value is below 20 µg/mL with S. aureus, 60 µg/mL with E. coli, below 4 µg/mL in the data set on S. agalactiae and 20 µg/mL in the data set with P. aeruginosa.
Take `COc1cccc2c1[n+]([O-])c1cccc(O)c1[n+]2[O-]` [Myxin, 6-methoxy-1-phenazinol 5,10-dioxide]: the anti-microbial activity result in data set [1] is “high degree and wide spectrum of anti-microbial activity”. In the data set “Solubility in water”, the solubility in water result is “very slightly soluble in water”.
